Values after ≈ are worked out from the molar mass of the structure shown.
How the values were obtained:
Type in all cases: cell-based
S. lutea = experiment: antibacterial activity vs. S. lutea; conditions: level relative to phthalimidopenicillin
Protocol: The compound was dissolved in methylene chloride and the solution extracted with 5% sodium bicarbonate. The aqueous extract was re-acidified to pH 2.5 and re-extracted with methylene chloride.
The crystalline trans acid in methylene chloride, was shaken with 5% bicarbonate for 5 min. The aqueous phase was then separated, acidified to pH 4.5 - 5.0 and extracted with methylene chloride. It was then acidifid to pH 2.5 and extracted twice with methylene chloride and twice with chloroform.

D. pneumoniae = experiment: MIC, antibacterial activity; conditions: Streptococcus pneumoniae; + 5% serum; 45% AAB at 10^-^3 dil'n + 50% Medium Shown
Description: (§1) *45% AAB at 10^-^3 dil'n + 50% Medium Shown

Str. pyogenes = experiment: MIC, antibacterial activity; conditions: Streptococcus pyogenes; + 5% serum; 45% AAB at 10^-^3 dil'n + 50% Medium Shown
Description: as §1

S. aureus Smith = experiment: MIC, antibacterial activity; conditions: Staphylococcus aureus
S. aureus BX-1633-2 = experiment: MIC, antibacterial activity; conditions: Staphylococcus aureus
S. aureus Meth. Resist. = experiment: MIC, antibacterial activity; conditions: Staphylococcus aureus
S. aureus = experiment: MIC, antibacterial activity; conditions: Staphylococcus aureus
Sal. enteritidis = experiment: MIC, antibacterial activity; conditions: Salmonella enterica, at 10^-^4 dil'n
E. coli Juhl = experiment: MIC, antibacterial activity; conditions: Escherichia coli; at 10^-^4 dil'n
E. coli = experiment: MIC, antibacterial activity; conditions: Escherichia coli; at 10^-^4 dil'n
K. pneumoniae = experiment: MIC, antibacterial activity; conditions: Klebsiella pneumoniae; at 10^-^4 dil'n
Pr. mirabilis = experiment: MIC, antibacterial activity; conditions: Proteus mirabilis; at 10^-^4 dil'n
Pr. morganii = experiment: MIC, antibacterial activity; conditions: Morganella morganii; at 10^-^4 dil'n
Ps. aeruginosa = experiment: MIC, antibacterial activity; conditions: Pseudomonas aeruginosa; at 10^-^4 dil'n
Ser. marcescens = experiment: MIC, antibacterial activity; conditions: Serratia marcescens; at 10^-^4 dil'n
[1] = tested on: P. morganii and Ps. aeruginosa; experiment: MIC of ampicillin versus resistant or β-lactamase producing bacteria, alone and with substituted azetidine-2-one; conditions: read-out: Minimum Inhibitory Concentration of ampicillin
[2] = antibacterial activity (organism not stated); conditions: at levels of 250 mcg./ml.

With `CC1(C)O[C@@H]2[C@H](N3C(=O)c4ccccc4C3=O)C(=O)N2[C@H]1C(=O)O` [6-phthalimido oxapenicillin] as the molecule, how does the “antibacterial activity relative to phthalimidopenicillin” value (S. lutea) read?
The value was “one-tenth the level of phthalimidopenicillin”.

With `CC1(C)S[C@@H]2[C@H](NC(=O)Cc3ccccc3)C(=O)N2[C@H]1C(=O)O` [Penicillin G] as the molecule, how does the MIC (D. pneumoniae) read?
Its MIC is 0.004 µg/mL.

What about the MIC (Str. pyogenes) of the same molecule?
Its MIC is 0.004 µg/mL.

And the MIC (S. aureus Smith; at 10^-^4 dil'n)?
The MIC was 0.016 µg/mL (≈ 0.0478 µM).

What about the MIC (S. aureus Smith; at 10^-^4 dil'n + 5% serum) of the same molecule?
The MIC was 0.06 µg/mL.

What about the MIC (S. aureus BX-1633-2; BX16332, at 10^-^2 dil'n) of the same molecule?
Its MIC is greater than 125 µg/mL.

What about the MIC (S. aureus BX-1633-2; BX16332, at 10^-^3 dil'n) of the same molecule?
Its MIC is 125 µg/mL (≈ 374 µM).

What about the MIC (S. aureus Meth. Resist.) of the same molecule?
The MIC was 125 µg/mL (≈ 374 µM).

What about the MIC (S. aureus; at 10^-^2 dil'n) of the same molecule?
Its MIC is greater than 125 µg/mL.

And the MIC (S. aureus; at 10^-^3 dil'n)?
The MIC was 63 µg/mL (≈ 188 µM).

And the MIC (Sal. enteritidis)?
The MIC was 0.13 µg/mL (≈ 0.389 µM).

And the MIC (E. coli Juhl)?
The MIC was 32 µg/mL (≈ 95.7 µM).

What about the MIC (E. coli) of the same molecule?
The MIC was 125 µg/mL (≈ 374 µM).

And the MIC (K. pneumoniae)?
The MIC was 2 µg/mL (≈ 5.98 µM).

What about the MIC (Pr. mirabilis) of the same molecule?
The MIC was 1 µg/mL (≈ 2.99 µM).

What about the MIC (Pr. morganii) of the same molecule?
Its MIC is greater than 125 µg/mL.

And the MIC (Ps. aeruginosa)?
Its MIC is greater than 125 µg/mL.

What about the MIC (Ser. marcescens) of the same molecule?
The MIC was greater than 125 µg/mL.

For `CC1(C)S[C@@H]2[C@H](NC(=O)[C@H](N)c3ccccc3)C(=O)N2[C@H]1C(=O)O` [ampicillin], which MIC [1] is on record?
Its MIC is 500 to 1000 µg/mL.

With `CC(C)=C(C(=O)O)N1C(=O)[C@H]2N=C(Cc3ccccc3)O[C@H]21` [oxazoline carboxylic acid, 2-benzyl-6-(1'-carboxy-2'-methylprop-1'-enyl)-1-oxa-3,6-diaza-4S,5R-bicyclo [3,2,0] hept-2-en-7-one] as the molecule, how does the “activity as an antibacterial agent” value [2] read?
Its value is “inactive”.

Reference: patent publication US3948927A, “2,2-Dimethyl-3R-carboxy-6S-amino-1-oxa-4-aza-5R-bicyclo-[3,2,0]heptan-7-o ne” (Queen's University, priority 1974, dated 1976)
